Literature values, collected in patent US20260091056A1, “COMPOSITIONS FOR CONTROLLING ODOR AND ITCH AND METHODS OF AND DEVICES FOR ADMINISTERING SAME” (Vireo Systems, Inc., priority 2020, published 2026).

Conditions: at 25° C.

In the case of boric acid, the pKa value is given as roughly 9.14.
